Laboratory results: publication PMC9221371, “Flavonoid Derivatives as Potential Cholinesterase Inhibitors in Scopolamine-Induced Amnesic Mice: An In Vitro, In Vivo and Integrated Computational Approach” (Brain Sciences, 2022)
Where two headings read alike, the source gives them in different places.

Key:
[1] = tested on: brains of scopolamine-induced amnesic mice; assay: Antioxidant enzyme activities and oxidative stress markers in brain homogenate; type: in vivo, Balb/C mice
Description: (§1) The animals in the control (normal) and scopolamine amnesic groups were administered vehicle (Tween-80, 2%) only. Treated animals received F1–F5 suspended in Tween-80 (2%) p.o. at their respective doses for a period of 4 weeks. […] For assessing behavioral effects using the Y-Maze Paradigm and novel object discrimination (NOD) task, scopolamine (1 mg/kg, i.p.) was given to the different groups, 30 min after the respective treatments, to induce memory impairment (amnesia) in mice. All of the tests were performed between 8:00 a.m. and 6:00 p.m. to avoid sham results in the performance of the animals.
(§2) The brain was extracted, and a homogenate (10% w/v) in 0.1 M of phosphate buffer (pH 7.4) was prepared by centrifugation for the assessment of brain oxidative status and estimating brain acetylcholinesterase activity. Catalase (CAT), superoxide dismutase (SOD), glutathione (GSH) and level of lipid peroxidation (malondialdehyde, MDA) were quantified as oxidative stress markers.

[2] = tested on: scopolamine-induced amnesic mice; assay: Y-Maze Paradigm, spontaneous alternation in scopolamine-induced amnesic model; type: in vivo, Balb/C mice; conditions: for Spontaneous Alternation Performance: scopolamine 1 mg/kg i.p., n = 8
Excerpt: (§3) For assessment of acute toxicity of the flavones (F1–F5), animals (21 in number) were divided into groups of 3 animals each. The reported protocols by Lorke were followed with slight modification to perform tests in two phases. In the first phase, one (control) group of animals were given Tween-80 (2%), and oral doses of F1–F5 were given to the remaining groups, respectively, at various doses (mg/kg body weight). […] The animals were housed in plastic cages. After two weeks, the animals were sacrificed by euthanasia with isoflurane in a humane manner for assessment of the effects on total weight and weight of the vital organs. The biochemical parameters of blood and histological studies of vital organs (kidney and liver tissue) were also assessed. […] The preliminary pharmacological activity was assessed at various dose concentrations of F1–F5 (2.5–20 mg/kg b.w.) to determine the effective dose for assessment of cognitive function using animal models.
as §1
(§4) Behavioral tasks on the Y-Maze Paradigm and “NOD” tasks were conducted in the 5th week of study to determine learning and memory functions. The apparatus arena was cleaned with 70% ethanol during the inter-trial interval to prevent a confounding error due to the influence of odor [20, 21].
The Y-Maze task is a non-invasive and reliable behavioral test that was used for memory assessment of spontaneous alternation for F1–F5 based on previously reported protocols. A single session of Y-Maze was used to record the spontaneous alternation behavior of the animals to determine exploratory behavior and instant memory functioning. The apparatus was made of three arms in a “Y” shape (35 cm × 8 cm × 15 cm) with an equilateral triangular central area. In brief, each of the mice, previously naive to the maze, was placed at the terminal end of one arm. The animals were allowed to move and explore freely for 8 min through the maze. The number of arm entries was noted. One arm entry was considered when the hind paws of the animal were completely placed inside the arm, and the series of arm entries were documented. The spontaneous alternation in percent was calculated.

[3] = target: T1, BuChE (equine serum lyophilized) (Equus caballus, UniProt P81908); assay: biochemical; conditions: triplicate; read-out: BChE IC50 (converted)
T1 construct: purchased Sigma-Aldrich (Taufkirchen, Germany); host or cells: equine serum
Description: (§5) Synthetic flavonoids F1–F5 previously synthesized by our group were used in the study.
(§6) For the determination of acetylcholinesterase inhibitory potentials, AChE and BuChE were used. […] To the tube were added DTNB (100 µL) and buffer (2.4 mL). The tube was incubated at 25 °C for 5 min as pre-incubation. The reaction was started by adding ATChI (40 µL), and the mixture was incubated at 25 °C for 20 min. The absorbance at 412 nm was measured spectrophotometrically in triplicate. […] The data were recorded in triplicate, and IC50 was calculated.

[4] = target: T2, AChE (electric eel type-VI-S) (Electrophorus electricus, UniProt O42275); assay: biochemical; conditions: 25 °C, triplicate
T2 construct: purchased Sigma-Aldrich (Taufkirchen, Germany)
Description: as §5, §6

Balb/C mice = assay: Acute toxicity study; type: in vivo; conditions: n = 3; for ALP / AST / Creatinine / Glucose / Total Cholesterol / Triglyceride: blood; for Kidney Weight / Liver Weight / Total Weight: mice
Excerpt: Two weeks before the experiment, the animals were acclimatized to laboratory conditions.
as §3

[5] = tested on: scopolamine-induced amnesic mice; assay: Novel object discrimination (NOD) task in scopolamine-induced amnesic model; type: in vivo, Balb/C mice; conditions: scopolamine 1 mg/kg i.p., n = 8
Description: as §1, §4
Animals were challenged for the novel object discrimination task for F1–F5 as per previously reported protocols. After habituation and acclimatization, animals in each group had two consecutive object exploration trials (5 min each) for this test, with a break of 4 h in between two trials. In the familiarization phase (sample), the animals were challenged to explore two objects similar to each other. In the second phase (test), any of the two objects was changed by a new object. Exploration time in sec for the objects, including chewing, licking, sniffing or pointing the vibrissae of nose towards the object, was recorded. The discrimination ratio (%DI) was then determined using:(T novel object − T familiar object)/(T novel object + T familiar object) × 100(1)

[6] = target: T3, brain acetylcholinesterase (Mus musculus, UniProt P21836); type: in vivo; design: unit not given here; conditions: brain homogenate, n = 8
T3 construct: The brain was extracted, and a homogenate (10% w/v) in 0.1 M of phosphate buffer (pH 7.4) was prepared; from tissue; host or cells: mouse brain homogenate
Description: as §1, §2

[7] = 7.5 mg/kg b.w., n = 8, 7.5 mg/kg

T1 sequence (P81908 whole entry): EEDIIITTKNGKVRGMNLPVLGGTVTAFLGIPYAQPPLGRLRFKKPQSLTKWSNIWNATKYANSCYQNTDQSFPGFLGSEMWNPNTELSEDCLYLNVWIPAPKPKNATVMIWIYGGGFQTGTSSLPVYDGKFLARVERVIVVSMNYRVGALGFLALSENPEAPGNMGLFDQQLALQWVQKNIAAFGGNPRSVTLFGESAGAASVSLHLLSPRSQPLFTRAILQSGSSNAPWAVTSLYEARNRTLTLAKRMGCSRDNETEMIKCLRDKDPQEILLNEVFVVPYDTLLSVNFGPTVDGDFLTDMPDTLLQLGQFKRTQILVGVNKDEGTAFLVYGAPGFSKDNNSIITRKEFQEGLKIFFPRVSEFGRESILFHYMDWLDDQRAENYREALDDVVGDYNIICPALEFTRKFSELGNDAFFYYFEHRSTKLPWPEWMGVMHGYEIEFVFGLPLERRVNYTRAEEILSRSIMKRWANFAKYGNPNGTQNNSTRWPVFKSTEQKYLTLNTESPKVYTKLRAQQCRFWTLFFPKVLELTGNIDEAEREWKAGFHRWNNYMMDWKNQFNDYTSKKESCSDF
T2 sequence (O42275 24-633): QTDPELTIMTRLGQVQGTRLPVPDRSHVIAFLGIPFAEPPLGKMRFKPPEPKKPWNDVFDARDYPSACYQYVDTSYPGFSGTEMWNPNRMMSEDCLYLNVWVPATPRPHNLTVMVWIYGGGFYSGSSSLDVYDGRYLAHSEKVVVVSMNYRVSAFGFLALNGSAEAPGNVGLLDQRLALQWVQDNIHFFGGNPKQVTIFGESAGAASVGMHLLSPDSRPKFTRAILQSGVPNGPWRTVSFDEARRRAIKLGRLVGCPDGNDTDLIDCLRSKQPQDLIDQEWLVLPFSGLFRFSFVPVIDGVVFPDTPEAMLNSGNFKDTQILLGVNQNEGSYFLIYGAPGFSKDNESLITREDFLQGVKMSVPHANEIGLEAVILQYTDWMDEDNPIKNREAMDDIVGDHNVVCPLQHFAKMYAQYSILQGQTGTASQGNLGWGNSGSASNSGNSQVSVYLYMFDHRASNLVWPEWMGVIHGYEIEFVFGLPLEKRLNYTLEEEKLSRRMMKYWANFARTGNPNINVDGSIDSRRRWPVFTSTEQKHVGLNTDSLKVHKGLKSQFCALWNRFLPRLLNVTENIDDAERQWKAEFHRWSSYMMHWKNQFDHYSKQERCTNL
T3 sequence (P21836 32-614): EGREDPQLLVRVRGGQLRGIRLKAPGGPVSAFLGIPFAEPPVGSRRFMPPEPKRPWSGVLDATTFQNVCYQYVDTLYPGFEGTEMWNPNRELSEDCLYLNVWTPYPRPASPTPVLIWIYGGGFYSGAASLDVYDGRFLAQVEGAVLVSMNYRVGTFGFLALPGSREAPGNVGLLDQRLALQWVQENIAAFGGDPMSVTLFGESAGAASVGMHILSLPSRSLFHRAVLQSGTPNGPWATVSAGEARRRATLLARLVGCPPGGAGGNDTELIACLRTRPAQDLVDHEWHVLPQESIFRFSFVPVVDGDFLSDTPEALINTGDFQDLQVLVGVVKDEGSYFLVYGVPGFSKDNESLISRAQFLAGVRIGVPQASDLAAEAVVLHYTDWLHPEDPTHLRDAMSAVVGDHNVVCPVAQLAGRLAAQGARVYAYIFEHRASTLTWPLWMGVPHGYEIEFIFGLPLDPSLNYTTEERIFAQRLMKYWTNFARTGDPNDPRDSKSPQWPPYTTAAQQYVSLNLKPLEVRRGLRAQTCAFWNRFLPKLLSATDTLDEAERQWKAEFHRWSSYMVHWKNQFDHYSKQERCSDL

## O=c1cc(-c2ccc(Cl)cc2Cl)oc2ccccc12 [Compound F2]
[1]; 7.5 mg/kg b.w., n = 8
  CAT: 22.83 ± 1.19 U/mg of Protein
  GSH: 34.93 ± 1.22 μg/mg of Protein
  MDA: 15.16 ± 1.21 nmol/mg Protein
  SOD: 9.25 ± 1.36 U/mg of Protein
[1]; 15 mg/kg b.w., n = 8
  CAT: 23.71 ± 1.45 U/mg of Protein
  GSH: 35.91 ± 1.39 μg/mg of Protein
  MDA: 14.90 ± 1.33 nmol/mg Protein
  SOD: 9.33 ± 1.45 U/mg of Protein
[2]; 7.5 mg/kg b.w. p.o. 4 weeks
  Spontaneous Alternation Performance: 47.13 ± 1.65%
[2]; 15 mg/kg b.w. p.o. 4 weeks
  Spontaneous Alternation Performance: 49.88 ± 1.28%
[3]
  IC50: 361 µM
[4]
  IC50: 451 µM

## O=c1cc(-c2cccc(Cl)c2Cl)oc2ccccc12 [Compound F3]
[1]; 7.5 mg/kg b.w., n = 8
  CAT: 22.97 ± 1.71 U/mg of Protein
  GSH: 35.61 ± 1.55 μg/mg of Protein
  MDA: 16.37 ± 1.13 nmol/mg Protein
  SOD: 9.19 ± 1.21 U/mg of Protein
[1]; 15 mg/kg b.w., n = 8
  CAT: 24.50 ± 1.41 U/mg of Protein
  GSH: 36.98 ± 1.66 μg/mg of Protein
  MDA: 15.94 ± 1.65 nmol/mg Protein
  SOD: 9.41 ± 1.29 U/mg of Protein
[2]; 7.5 mg/kg b.w. p.o. 4 weeks
  Spontaneous Alternation Performance: 59.61 ± 1.61 %
[2]; 15 mg/kg b.w. p.o. 4 weeks
  Spontaneous Alternation Performance: 65.78 ± 1.57 %
[3]
  IC50: 505 µM
[4]
  IC50: 434 µM

## O=c1cc(-c2ccc(Cl)c(Cl)c2)oc2ccccc12 [Compound F4]
[1]; 7.5 mg/kg b.w., n = 8
  CAT: 22.21 ± 1.40 U/mg of Protein
  GSH: 36.21 ± 1.35 μg/mg of Protein
  MDA: 15.74 ± 1.21 nmol/mg Protein
  SOD: 9.30 ± 1.41 U/mg of Protein
[1]; 15 mg/kg b.w., n = 8
  CAT: 23.39 ± 1.32 U/mg of Protein
  GSH: 38.30 ± 1.40 μg/mg of Protein
  MDA: 15.01 ± 1.37 nmol/mg Protein
  SOD: 9.71 ± 1.56 U/mg of Protein
[2]; 7.5 mg/kg b.w. p.o. 4 weeks
  Spontaneous Alternation Performance: 57.92 ± 1.41 %
[2]; 15 mg/kg b.w. p.o. 4 weeks
  Spontaneous Alternation Performance: 66.70 ± 1.63 %
[3]
  IC50: 418 µM
[4]
  IC50: 386 µM

## O=c1cc(-c2ccc(Cl)cc2)oc2ccccc12 [Compound F1]
Balb/C mice; 600 mg/kg b.w. oral
  ALP: 132.54 ± 2.78 U/L
  AST: 107.89 ± 2.01 U/L
  Creatinine: 0.36 ± 0.05 mg/dL
  Glucose: 85.51 ± 2.33 mg/dL
  Total Cholesterol: 103.19 ± 2.06 mg/dL
  Triglyceride: 95.20 ± 2.76 mg/dL
  Kidney Weight: 0.29 ± 0.19 g
  Liver Weight: 1.24 ± 0.21 g
  Total Weight: 21.82 ± 1.39 g
Balb/C mice; 1000 mg/kg b.w. oral
  ALP: 136.33 ± 2.39 U/L
  AST: 108.34 ± 2.66 U/L
  Creatinine: 0.38 ± 0.06 mg/dL
  Glucose: 86.98 ± 2.09 mg/dL
  Total Cholesterol: 102.76 ± 1.87 mg/dL
  Triglyceride: 94.78 ± 1.98 mg/dL
  Kidney Weight: 0.29 ± 0.18 g
  Liver Weight: 1.23 ± 0.26 g
  Total Weight: 22.93 ± 1.91 g
Balb/C mice; 2000 mg/kg b.w. oral
  ALP: 135.29 ± 4.17 U/L
  AST: 109.73 ± 1.98 U/L
  Creatinine: 0.34 ± 0.04 mg/dL
  Glucose: 86.45 ± 2.27 mg/dL
  Total Cholesterol: 102.05 ± 2.01 mg/dL
  Triglyceride: 96.22 ± 1.70 mg/dL
  Kidney Weight: 0.30 ± 0.20 g
  Liver Weight: 1.23 ± 0.24 g
  Total Weight: 21.79 ± 1.72 g
Balb/C mice; 3000 mg/kg b.w. oral
  ALP: 136.09 ± 3.12 U/L
  AST: 109.90 ± 2.09 U/L
  Creatinine: 0.29 ± 0.03 mg/dL
  Glucose: 85.72 ± 1.97 mg/dL
  Total Cholesterol: 101.28 ± 1.98 mg/dL
  Triglyceride: 97.41 ± 1.83 mg/dL
  Kidney Weight: 0.31 ± 0.27 g
  Liver Weight: 1.25 ± 0.29 g
  Total Weight: 22.71 ± 1.79 g
[5]; 7.5 mg/kg b.w. p.o. 4 weeks
  discrimination index (%DI): 48.67 ± 1.57%
[5]; 15 mg/kg b.w. p.o. 4 weeks
  discrimination index (%DI): 51.11 ± 1.48%
[1]; 7.5 mg/kg b.w., n = 8
  GSH: 34.62 ± 1.50 μg/mg of Protein
  MDA: 16.39 ± 1.28 nmol/mg Protein
[1]; [7]
  CAT: 21.93 ± 1.37 U/mg of Protein
  SOD: 8.97 ± 1.12 U/mg of Protein
[1]; 15 mg/kg b.w., n = 8
  GSH: 35.70 ± 1.47 μg/mg of Protein
  MDA: 16.12 ± 1.47 nmol/mg Protein
[1]; 15 mg/kg b.w., n = 8, 15 mg/kg
  CAT: 22.31 ± 1.22 U/mg of Protein
  SOD: 9.12 ± 1.28 U/mg of Protein
[2]; 7.5 mg/kg b.w. p.o. 4 weeks
  Spontaneous Alternation Performance: 49.90 ± 1.33%
[2]; 15 mg/kg b.w. p.o. 4 weeks
  Spontaneous Alternation Performance: 51.78 ± 1.45%
[2]; Table S1, dose 2.5 mg/kg b.w.
  Spontaneous alternation performance (preliminary, selection of doses): 37.02±2.11
[2]; Table S1, dose 5 mg/kg b.w.
  Spontaneous alternation performance (preliminary, selection of doses): 38.91±1.67
[2]; Table S1, dose 7.5 mg/kg b.w.
  Spontaneous alternation performance (preliminary, selection of doses): 49.12±1.45
[2]; Table S1, dose 10 mg/kg b.w.
  Spontaneous alternation performance (preliminary, selection of doses): 48.66±1.98
[2]; Table S1, dose 12.5 mg/kg b.w.
  Spontaneous alternation performance (preliminary, selection of doses): 48.98±2.01
[2]; Table S1, dose 15 mg/kg b.w.
  Spontaneous alternation performance (preliminary, selection of doses): 51.72±1.88
[2]; Table S1, dose 20 mg/kg b.w.
  Spontaneous alternation performance (preliminary, selection of doses): 52.03±2.03
[3]
  IC50: 603 µM
[4]
  IC50: 644 µM
[6]; 7.5 mg/kg b.w.
  level of AChE: 21.31 ± 0.53
[6]; 15 mg/kg b.w.
  level of AChE: 21.01 ± 0.61
